Reference: paper PMC12073449, “Development of a Mechanism of Action-Reflective Cell-Based Reporter Gene Assay for Measuring Bioactivities of Therapeutic Glucagon-like Peptide-2 Analogues” (Molecules, 2025)
Ends that are not written are not given here.

Test system: HEK293-GLP-2R-Luc cells

## HGEGTFSSELATILDALAARDFINWLIATKITDKKKKKK-NH2 [glepaglutide]
Qvalue 1.61 × 10^−6
  log2 (TD/Ctrl) CPEB2: 1.107
  log2 (TD/Ctrl) GPAT3: 1.067
Qvalue 1.62 × 10^−11
  log2 (TD/Ctrl) LBH: 1.387
Qvalue 1.62 × 10^−22
  log2 (TD/Ctrl) CSRNP1: 2.05
Qvalue 1.63 × 10^−11
  log2 (TD/Ctrl) USP36: 1.039
Qvalue 1.71 × 10^−14
  log2 (TD/Ctrl) DNER: 3.018
Qvalue 1.72 × 10^−7
  log2 (TD/Ctrl) LOC102724428: 1.373
  log2 (TD/Ctrl) RELB: 1.9665
Qvalue 1.77 × 10^−4
  log2 (TD/Ctrl) BMF: −1.178
Qvalue 1.77 × 10^−11
  log2 (TD/Ctrl) PBX1: −1.095
Qvalue 1.80 × 10^−7
  log2 (TD/Ctrl) TNFAIP3: 1.227
Qvalue 1.83 × 10^−18
  log2 (TD/Ctrl) SCN9A: −1.8
Qvalue 1.84 × 10^−5
  log2 (TD/Ctrl) INPP5D: −2.417
Qvalue 1.87 × 10^−4
  log2 (TD/Ctrl) ICAM5: 1.744
Qvalue 1.87 × 10^−11
  log2 (TD/Ctrl) ZNF503: −1.2971
Qvalue 1.88 × 10^−5
  log2 (TD/Ctrl) MFSD2A: 1.193
Qvalue 1.89 × 10^−4
  log2 (TD/Ctrl) ADA: 1.023
Qvalue 1.91 × 10^−39
  log2 (TD/Ctrl) SV2C: 6.845
Qvalue 1.93 × 10^−15
  log2 (TD/Ctrl) ELL2: 1.192
Qvalue 1.93 × 10^−23
  log2 (TD/Ctrl) CD44: 2.115
Qvalue 1.97 × 10^−6
  log2 (TD/Ctrl) CYB5D2: −1.056
Qvalue 2.01 × 10^−5
  log2 (TD/Ctrl) DOK3: −1.636
Qvalue 2.01 × 10^−13
  log2 (TD/Ctrl) TFPI2: 2.377
Qvalue 2.02 × 10^−19
  log2 (TD/Ctrl) TUBB2A: 1.401
Qvalue 2.03 × 10^−14
  log2 (TD/Ctrl) SERTAD1: 1.452
Qvalue 2.06 × 10^−4
  log2 (TD/Ctrl) TRIM47: 1.231
Qvalue 2.06 × 10^−17
  log2 (TD/Ctrl) CD68: 2.012
Qvalue 2.07 × 10^−4
  log2 (TD/Ctrl) FRMPD4: −1.078
Qvalue 2.09 × 10^−50
  log2 (TD/Ctrl) ETV4: 3.646
Qvalue 2.12 × 10^−4
  log2 (TD/Ctrl) TUBA4A: 1.633
Qvalue 2.12 × 10^−19
  log2 (TD/Ctrl) SLC6A17: 2.784
Qvalue 2.21 × 10^−5
  log2 (TD/Ctrl) NAV2: 1.102
  log2 (TD/Ctrl) SOX2: −1.189
Qvalue 2.27 × 10^−19
  log2 (TD/Ctrl) IL6R: 1.742
Qvalue 2.28 × 10^−8
  log2 (TD/Ctrl) GPRC5A: 1.328
Qvalue 2.28 × 10^−9
  log2 (TD/Ctrl) SLC25A25: 1.117
Qvalue 2.29 × 10^−9
  log2 (TD/Ctrl) UPP1: 1.296
Qvalue 2.31 × 10^−9
  log2 (TD/Ctrl) OLIG2: 2.054
Qvalue 2.37 × 10^−34
  log2 (TD/Ctrl) TNC: 1.657
Qvalue 2.38 × 10^−8
  log2 (TD/Ctrl) GPR50: 2.002
Qvalue 2.40 × 10^−4
  log2 (TD/Ctrl) CPA4: 5.506
Qvalue 2.42 × 10^−6
  log2 (TD/Ctrl) FAM217B: −1.106
Qvalue 2.50 × 10^−4
  log2 (TD/Ctrl) CCDC9: 1.137
  log2 (TD/Ctrl) PLK3: 1.391
Qvalue 2.51 × 10^−19
  log2 (TD/Ctrl) TCIM: 7.037
Qvalue 2.55 × 10^−11
  log2 (TD/Ctrl) NRP1: −1.191
Qvalue 2.56 × 10^−11
  log2 (TD/Ctrl) EPHA2: 1.303
Qvalue 2.57 × 10^−12
  log2 (TD/Ctrl) DUSP4: 1.926
Qvalue 2.58 × 10^−27
  log2 (TD/Ctrl) MAFF: 3.639
Qvalue 2.58 × 10^−33
  log2 (TD/Ctrl) AMOT: −1.62
Qvalue 2.59 × 10^−23
  log2 (TD/Ctrl) TNFRSF12A: 2.183
Qvalue 2.68 × 10^−12
  log2 (TD/Ctrl) ZFP36: 1.676
Qvalue 2.71 × 10^−4
  log2 (TD/Ctrl) ARL14: 3.565
Qvalue 2.71 × 10^−23
  log2 (TD/Ctrl) JUNB: 2.192
Qvalue 2.74 × 10^−4
  log2 (TD/Ctrl) C1GALT1C1: −1.022
Qvalue 2.76 × 10^−6
  log2 (TD/Ctrl) UBALD2: 1.053
Qvalue 2.82 × 10^−4
  log2 (TD/Ctrl) ZNF33B: −1.021
Qvalue 2.87 × 10^−4
  log2 (TD/Ctrl) YPEL4: 2.621
Qvalue 2.87 × 10^−7
  log2 (TD/Ctrl) WNT5A: −1.332
Qvalue 2.88 × 10^−7
  log2 (TD/Ctrl) FLNC: 1.243
Qvalue 2.91 × 10^−8
  log2 (TD/Ctrl) NFIL3: 1.177
Qvalue 2.97 × 10^−31
  log2 (TD/Ctrl) TXNIP: −1.9141
Qvalue 2.98 × 10^−32
  log2 (TD/Ctrl) GLA: 1.68
Qvalue 3.01 × 10^−4
  log2 (TD/Ctrl) VAV1: 1.198
Qvalue 3.01 × 10^−9
  log2 (TD/Ctrl) RGS2: 1.337
Qvalue 3.01 × 10^−13
  log2 (TD/Ctrl) NREP: −1.339
Qvalue 3.15 × 10^−7
  log2 (TD/Ctrl) B3GAT1: 1.485
  log2 (TD/Ctrl) OLFM2: 1.732
Qvalue 3.17 × 10^−4
  log2 (TD/Ctrl) IL15RA: 1.677
Qvalue 3.27 × 10^−6
  log2 (TD/Ctrl) TNFRSF9: 1.903
Qvalue 3.31 × 10^−6
  log2 (TD/Ctrl) RASD1: 2.273
Qvalue 3.35 × 10^−6
  log2 (TD/Ctrl) TSC22D3: 1.67
Qvalue 3.37 × 10^−6
  log2 (TD/Ctrl) MSANTD3-TMEFF1: 1.009
Qvalue 3.39 × 10^−5
  log2 (TD/Ctrl) SKIDA1: −1.407
Qvalue 3.44 × 10^−6
  log2 (TD/Ctrl) USH1C: 2.547
Qvalue 3.45 × 10^−5
  log2 (TD/Ctrl) TMEM231: 1.1218
Qvalue 3.45 × 10^−9
  log2 (TD/Ctrl) COL12A1: 1.157
Qvalue 3.50 × 10^−4
  log2 (TD/Ctrl) BEGAIN: 1.974
Qvalue 3.51 × 10^−4
  log2 (TD/Ctrl) PHLDA2: 1.79
Qvalue 3.52 × 10^−9
  log2 (TD/Ctrl) PCDH7: −1.185
Qvalue 3.54 × 10^−4
  log2 (TD/Ctrl) ULBP2: 1.312
Qvalue 3.56 × 10^−4
  log2 (TD/Ctrl) PHF21B: 1.711
Qvalue 3.59 × 10^−15
  log2 (TD/Ctrl) JUN: 1.216
Qvalue 3.61 × 10^−6
  log2 (TD/Ctrl) PIM1: 1.177
Qvalue 3.63 × 10^−4
  log2 (TD/Ctrl) CSGALNACT1: 2.392
Qvalue 3.74 × 10^−4
  log2 (TD/Ctrl) MN1: 1.348
Qvalue 3.77 × 10^−12
  log2 (TD/Ctrl) ATF3: 2.527
Qvalue 3.78 × 10^−13
  log2 (TD/Ctrl) CASP9: 1.439
Qvalue 3.88 × 10^−22
  log2 (TD/Ctrl) C11orf96: 4.461
Qvalue 3.94 × 10^−5
  log2 (TD/Ctrl) FHL3: 1.045
Qvalue 4.00 × 10^−5
  log2 (TD/Ctrl) MRC2: 1.244
Qvalue 4.00 × 10^−6
  log2 (TD/Ctrl) SH2D3C: 2.239
